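A five-concentration, 48-hour dose response in 96-well plates underlies each endpoint, interpolated linearly between surrounding concentrations. Abbreviation: GI50, concentration required for 50% inhibition of growth.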 Active and inactive are the calls of the source. Cut-off read from the data, not from the text of the source: active = GI50 up to about 1.1 µM and inactive = higher.
How the values were obtained:
Assay in all cases: inhibition of tumour cell growth, NCI panel, 48 h
[1] = test system: XF498
[2] = test system: LXFL 529
[3] = test system: Malme-3M
[4] = test system: EKVX
[5] = test system: CCRF-CEM
[6] = test system: SNB-75
[7] = test system: UO-31
[8] = test system: RXF 631
[9] = test system: KM-20L2
[10] = test system: M19-MEL
[11] = test system: IGROV-1
[12] = test system: HCC 2998
[13] = test system: SK-MEL-2
[14] = test system: DMS-273
[15] = test system: NCI-H460
[16] = test system: OVCAR-5
[17] = test system: SN12C
[18] = test system: UACC-257
[19] = test system: HCT-116
[20] = test system: UACC-62
[21] = test system: RXF 393
[22] = test system: CAKI-1
[23] = test system: SNB-19
[24] = test system: K562
[25] = test system: U-251
[26] = test system: A498
[27] = test system: COLO 205
[28] = test system: DMS-114
[29] = test system: SNB-78
[30] = test system: HT-29
[31] = test system: KM12
[32] = test system: RPMI-8226
[33] = test system: HL-60
[34] = test system: A549
[35] = test system: ACHN
[36] = test system: NCI-H226
[37] = test system: DLD-1
[38] = test system: NCI-H23
[39] = test system: SK-OV-3
[40] = test system: OVCAR-8
[41] = test system: TK-10
[42] = test system: SF-295
[43] = test system: SF-268
[44] = test system: SK-MEL-5
[45] = test system: 786-0
[46] = test system: SW-620
[47] = test system: HCT-15
[48] = test system: M14
[49] = test system: OVCAR-3
[50] = test system: SK-MEL-28
[51] = test system: HOP-92
[52] = test system: NCI-H522
[53] = test system: HOP-62
[54] = test system: OVCAR-4
[55] = test system: LOX IMVI
[56] = test system: SF-539
[57] = test system: HOP-18
[58] = test system: MOLT-4
[59] = test system: SR

Measured: GI50

CC(C)c1cccc(C(C)C)c1N1C(=O)C(=O)C(c2nc3ccccc3o2)C(=O)C1=O
inactive: [1] 38.5 µM | [2] 42.2 µM | [3] 91.4 µM | [4] > 100 µM | [5] 8.95 µM | [6] 26.2 µM | [7] 94 µM | [8] > 100 µM | [9] 79.1 µM | [10] 63.4 µM | [11] > 100 µM | [12] 24.3 µM | [13] > 100 µM | [14] 68.2 µM | [15] > 100 µM | [16] > 100 µM | [17] > 100 µM | [18] > 100 µM | [19] 25.8 µM | [20] 71.6 µM | [21] 92.3 µM | [22] 40.5 µM | [23] > 100 µM | [24] 28.2 µM | [25] > 100 µM | [26] > 100 µM | [27] 32.8 µM | [28] 24.5 µM | [29] > 100 µM | [30] 30.3 µM | [31] > 100 µM | [32] 35.4 µM | [33] 30.3 µM | [34] > 100 µM | [35] > 100 µM | [36] 19.2 µM | [37] 31.6 µM | [38] 29.6 µM | [39] > 100 µM | [40] > 100 µM | [41] > 100 µM | [42] > 100 µM | [43] 47.2 µM | [44] 38.5 µM | [45] 14.4 µM | [46] 48.1 µM | [48] 55.8 µM | [49] 33.7 µM | [50] 32.7 µM | [51] 33.3 µM | [52] 19.5 µM | [53] > 100 µM | [54] 78.2 µM | [55] > 100 µM | [56] > 100 µM
49.7 µM: [47]

CCCCCCCCCCCC(=O)OCCOCCOCCOCCOCCOCc1ccc(OC)cc1
inactive: [2] > 100 µM | [3] > 100 µM | [4] > 100 µM | [5] > 100 µM | [6] > 100 µM | [7] > 100 µM | [8] > 100 µM | [9] > 100 µM | [10] > 100 µM | [11] 88.5 µM | [12] > 100 µM | [13] > 100 µM | [57] > 100 µM | [14] > 100 µM | [15] > 100 µM | [16] > 100 µM | [17] > 100 µM | [18] > 100 µM | [19] > 100 µM | [20] > 100 µM | [21] > 100 µM | [22] > 100 µM | [23] > 100 µM | [24] > 100 µM | [25] > 100 µM | [26] > 100 µM | [27] > 100 µM | [28] > 100 µM | [29] > 100 µM | [30] > 100 µM | [31] > 100 µM | [58] 73.6 µM | [32] > 100 µM | [33] 14.8 µM | [59] > 100 µM | [34] > 100 µM | [35] > 100 µM | [36] > 100 µM | [37] > 100 µM | [38] > 100 µM | [39] > 100 µM | [40] > 100 µM | [41] > 100 µM | [42] > 100 µM | [43] > 100 µM | [44] > 100 µM | [45] > 100 µM | [46] > 100 µM | [48] > 100 µM | [49] > 100 µM | [50] > 100 µM | [51] > 100 µM | [52] > 100 µM | [53] > 100 µM | [54] > 100 µM | [55] > 100 µM
> 100 µM: [47]

CCOc1ccc2[nH]c3c(C)c4ccncc4c(C)c3c2c1
inactive: [3] 1.41 µM | [4] 1.46 µM | [6] 1.71 µM | [7] 2.91 µM | [8] 1.27 µM | [10] 1.51 µM | [11] 1.16 µM | [12] 1.42 µM | [13] 1.19 µM | [16] 1.58 µM | [18] 1.75 µM | [21] 1.54 µM | [22] 1.69 µM | [23] 1.45 µM | [26] 1.8 µM | [27] 1.21 µM | [28] 1.34 µM | [29] 1.34 µM | [32] 1.36 µM | [33] 1.2 µM | [34] 1.45 µM | [36] 1.82 µM | [38] 1.45 µM | [39] 3.91 µM | [41] 2.12 µM | [43] 1.18 µM | [44] 1.51 µM | [48] 1.55 µM | [49] 4.27 µM | [50] 1.91 µM | [51] 1.45 µM | [52] 1.45 µM | [54] 1.41 µM | [55] 1.2 µM | [56] 1.58 µM
active: [1] 0.984 µM | [2] 0.698 µM | [5] 0.649 µM | [9] 1.08 µM | [14] 0.394 µM | [15] 0.451 µM | [17] 0.564 µM | [19] 0.486 µM | [24] 0.377 µM | [25] 1 µM | [30] 0.71 µM | [31] 1 µM | [58] 0.426 µM | [59] 0.37 µM | [35] 1.07 µM | [37] 0.561 µM | [40] 0.789 µM | [42] 1.02 µM | [45] 1.03 µM | [46] 0.466 µM | [53] 1.08 µM
0.448 µM: [47]

— ChEMBL document CHEMBL1201862, “PubChem BioAssay data set” (2004)
